From patent US10233146B2, “Acetylenic cyanoenones as therapeutics for inflammation and carcinogenesis” (THE RESEARCH FOUNDATION FOR THE STATE UNIVERSITY OF NEW YORK, priority 2015, dated 2019)

Key:
Keap1/Nrf2/ARE pathway = conditions: topical daily 200 nmol, five days per week for four weeks, cited from earlier work
[1] = test system: NQO1 and glutathione S-transferases; conditions: mice, 9.2 mg per kg of food in the diet; cited from earlier work
NQO1 [2] = conditions: Hepa1c1c murine hepatoma cells; cited from earlier work
NQO1 [3] = experiment: Induction of NQO1 in Hepa1c1c7 murine hepatoma cells; format: cell-based; conditions: Mus musculus, Hepa-1c1c7; Hepa1c1c7 cells, 48 h treatment; read-out: NQO1 CD (concentration required to double the specific enzyme activity of NQO1)
Excerpt: In this assay, the concentration required to double (CD value) the specific enzyme activity of NQO1 is used to quantify inducer potency. […] Dinkova-KOstova, A. T. et al. 2012). […] These compounds may be more robust inducers than monocyclic compounds. [table]

In the case of `C#C[C@]12C=C(C#N)C(=O)C=C1[C@@]1(C)C=C(C#N)C(=O)C(C)(C)[C@@H]1CC2` (racemic) [TBE-31 (1), (±)-(4bS,8aR,10aS)-10a-ethynyl-4b,8,8-trimethyl-3,7-dioxo-3,4b,7,8,8a,9,10, 10a-octahydrophenanthrene-2,6-dicarbonitrile], the “6-thioguanine incorporation into DNA of skin, blood, and liver” value (Keap1/Nrf2/ARE pathway; azathioprine-treated mice) is listed as “decreases”, the “systemic induction of the Keap1/Nrf2/ARE pathway” value (Keap1/Nrf2/ARE pathway) is listed as “robust systemic induction” and the IC50 (iNOS) is listed as 1 nM. The “induction of NQO1 and glutathione S-transferases in the stomach, skin, and liver” value [1] was “profoundly and dose-dependently induces”, the “upregulation of NQO1” value (NQO1 [2]) was “upregulates NAD(P)H: quinone oxidoreductase 1 (NQO1)” and the EC (2-fold NQO1 activity) (NQO1 [3]) was 0.0009 µM.
